From paper PMC5640644, “HDX reveals the conformational dynamics of DNA sequence specific VDR co-activator interactions” (Nature Communications, 2017)
Where two headings read alike, the source gives them in different places.

Experiments:
BGLAP = BGLAP gene activation assay (BGLAP mRNA, QuantiGene 2.0) in MG-63 cells; type: cell-based, human; details: MG-63 cells; for EC50: 24 h, average of replicate runs, read-out: EC50, BGLAP activation; for Max. Stim., BGLAP activation: fold change over DMSO normalized to 1,25D3 = 100%
Experimental: Human osteosarcoma cells MG-63, (CRL-1427, American Type Culture Collection (ATCC), Manassas, VA), were maintained in EMEM (ATCC 30–2003) + 10% FBS in 5% CO2. For bone gamma-carboxyglutamate protein (BGLAP) expression analysis MG-63 cells, suspended in EMEM (ATCC 30–2003) + 5% charcoal dextran treated FBS, were seeded onto 96-well tissue culture treated plates at 25,000 cells per well. After an overnight incubation the medium was removed and serial dilutions of VDRMs in concentrations ranging from 10 μM to 2 nM in EMEM (ATCC 30–2003) + 5% charcoal dextran treated FBS were added. Following a 24 h incubation the medium was removed and the plates were sealed and stored at −80 °C for later processing. QuantiGene 2.0 Assay Kit (Affymetrix QS0009) was used to quantitate BGLAP and the Housekeeping gene […] mRNA levels. Following the kit instructions, lysis buffer was added to the frozen cells and incubated briefly at 55 °C. A volume of 20 μl of BGLAP probeset (Affymetrix SA-10875-01) or 18 S (Affymetrix SA-10026) in blocking buffer was added to the provided capture plates before adding 80 μl of the cell lysate. The plates were sealed and incubated at 55 °C overnight. Following an overnight incubation the capture plates were washed and the probes amplified following kit instructions. The resulting luminescence signal was detected on an Envision (Perkin Elmer). BGLAP signal was normalized using the 18S signal and the resulting data was fit to a 4-parameter logistics to determine EC50.

RXRα = biological target: T1, RXRα (Homo sapiens, UniProt P19793); experiment: Differential HDX-MS of RXRα alone with and without ligand; type: binding; details: without VDR
T1 construct: Flag; made in house; host or cells: baculovirus system
T1 sequence (P19793 1-462): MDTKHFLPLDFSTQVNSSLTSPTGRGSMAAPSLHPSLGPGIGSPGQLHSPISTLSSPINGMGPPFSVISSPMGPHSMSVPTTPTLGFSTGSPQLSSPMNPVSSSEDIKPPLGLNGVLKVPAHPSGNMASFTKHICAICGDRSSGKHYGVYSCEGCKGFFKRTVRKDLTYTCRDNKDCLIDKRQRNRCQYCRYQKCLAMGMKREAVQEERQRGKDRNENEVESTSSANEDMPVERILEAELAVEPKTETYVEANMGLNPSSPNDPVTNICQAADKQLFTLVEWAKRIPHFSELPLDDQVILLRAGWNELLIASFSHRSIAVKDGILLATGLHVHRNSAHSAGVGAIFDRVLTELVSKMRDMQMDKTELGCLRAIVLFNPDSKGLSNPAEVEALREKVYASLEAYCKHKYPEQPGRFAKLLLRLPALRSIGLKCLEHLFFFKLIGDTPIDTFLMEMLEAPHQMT
Experimental: Full-length WT His-hVDR (Δ (151–190)) and WT Flag-h RXRα were expressed in a baculovirus system and purified by Ni-NTASEC or Flag-SEC, respectively. His-hSRC1 RID (627–786) variant 1 (NM_003743) was expressed in Escherichia coli (BL21 DE3) and purified using His-Trap (GE Healthcare). The final protein buffer was 50 mM Tris (pH 8.0), 150 mM NaCl, 10% glycerol and 2 mM DTT. The purity of each protein was > 95% and was verified using SDS-PAGE, western blot and MALDI MS.
HDX-MS analysis: 10 μM of the apo protein was mixed with 1:10 molar excess of ligand and incubated for 2 h at 4 °C for complex formation before subjecting them to HDX analysis. […] The intensity weighted mean m/z centroid value of each peptide envelope was calculated and subsequently converted into a percentage of deuterium incorporation. […] In the absence of a fully deuterated control, 100% deuterium incorporation was calculated theoretically, and corrections for back-exchange were made on the basis of an estimated 70% deuterium recovery and accounting for 79.9% final deuterium concentration in the sample (1:5 dilution in D2O HDX buffer). Statistical significance for the differential HDX data is determined by an unpaired t-test for each time point, a procedure that is integrated into the HDX Workbench software. […]

SMILES	EC50 (BGLAP; Homo sapiens)	Max. Stim., BGLAP activation (BGLAP)	conformational changes of RXRα upon ligand binding (HDX) (RXRα)	EC50 (BGLAP)
CCC(CC)(c1ccc(OCC(O)C(C)(C)C)c(C)c1)c1ccc(C(=O)N(C)CC(=O)O)c(C)c1 (stereo not shown) [Cmpd1, [(4-{1-ethyl-1-[4-(2-hydroxy-3,3-dimethyl-butoxy)-3-methyl-phenyl]-propyl}-2-methyl-benzoyl)-methyl-amino]-acetic acid]	1.44 nM	94.2%	no detectable conformational changes	
CCc1cc(C(CC)(CC)c2ccc(OCC(O)C(C)(C)C)c(C)c2)sc1C(=O)N[C@@H](C)C(=O)O (single isomer, unassigned) [Cmpd2, L-2-[(5-{1-Ethyl-1-[4-(2-hydroxy-3,3-dimethyl-butoxy)-3-methyl-phenyl]-propyl}-3-ethyl-thiophene-2-carbonyl)-amino]-propionic acid]	34.9 nM	73%		
CCC(CC)(c1ccc(OCC(O)C(C)(C)C)c(C)c1)c1cc(C)c(C(=O)Nc2nnn[nH]2)s1 (stereo not shown) [Cmpd3, 3'-[4-(2-hydroxy-3,3-dimethylbutoxy)-3-methylphenyl]-3'-[5-(tetrazol-5-yl-aminocarbonyl)-4-methylthiophen-2-yl]pentane]		75.9%		698 nM
